These results are taken from ChEMBL document CHEMBL1133412, “Rational design, synthesis and structure-activity relationships of antitumor (E)-2-benzylidene-1-tetralones and (E)-2-benzylidene-1-indanones” (Bioorg Med Chem Lett, 2000).

What all share (format): functional, cell-based
Experiment [1] deals with B16. Description: Cytotoxicity was evaluated against B16 tumor cell lines; Inactive. The conditions noted are these: Mus musculus.
The test system of experiment [2] is NCI-H596. Kind of experiment: Cytotoxicity was evaluated against H596 tumor cell lines; Inactive. The conditions noted are these: Homo sapiens.
In experiment [3] the test system is CCRF-CEM. Description: Cytotoxicity was evaluated against CEM tumor cell lines; Inactive. The conditions noted are these: Homo sapiens.
The test system of experiment [4] is MOLT-4. Description: Cytotoxicity was evaluated against Molt-4 tumor cell lines; Inactive. The conditions noted are these: Homo sapiens.
Experiment [5] has as its system MCF7. Kind of experiment: Cytotoxicity was evaluated against MCF-7 tumor cell lines; Inactive. The conditions noted are these: Homo sapiens.
Experiment [6] has as its system NCI-H292. Kind of experiment: Cytotoxicity was evaluated against H292 tumor cell lines; Inactive. The conditions noted are these: Homo sapiens.
Experiment [7] has as its system A549. Kind of experiment: Cytotoxicity was evaluated against A549 tumor cell lines; Inactive. The conditions noted are these: Homo sapiens.
Experiment [8] deals with HL-60. Description: Cytotoxicity was evaluated against HL-60 tumor cell lines; Inactive. The conditions noted are these: Homo sapiens.
The subject of experiment [9] is NIH3T3. Kind of experiment: Cytotoxicity was evaluated against NIH3T3 tumor cell lines; Inactive. The conditions noted are these: Mus musculus.
Experiment [10] has as its system WIL2. Description: Cytotoxicity was evaluated against WIL2 tumor cell lines; Inactive. The conditions noted are these: Homo sapiens.
Experiment [11] relates to WI-38. Description: Cytotoxicity was evaluated against WI38 tumor cell lines; Inactive. The conditions noted are these: Homo sapiens.
Experiment [12] has as its system L1210. Kind of experiment: Cytotoxicity was evaluated against L1210 tumor cell lines; Inactive. The conditions noted are these: Mus musculus.
The test system of experiment [13] is K562. Kind of experiment: Cytotoxicity was evaluated against K562 tumor cell lines; Inactive. The conditions noted are these: Homo sapiens.
The subject of the next experiment is Jurkat. Description: In vitro test for antitumor activity against human Jurkat cell line using a formazan dye (MTT) conversion assay.
In experiment [14] the test system is NCI-H596. Description: Cytotoxicity evaluated against H596 tumor cell lines; Significant activity. The conditions noted are these: Homo sapiens.
The test system of experiment [15] is HL-60. Kind of experiment: Cytotoxicity evaluated against HL-60 tumor cell lines; Significant activity. The conditions noted are these: Homo sapiens.
The test system of experiment [16] is MCF7. Description: Cytotoxicity evaluated against MCF-7 tumor cell lines; Significant activity. The conditions noted are these: Homo sapiens.
The test system of experiment [17] is B16. Kind of experiment: Cytotoxicity was evaluated against B16 tumor cell lines; Significant activity. The conditions noted are these: Mus musculus.
The test system of experiment [18] is WI-38. Description: Cytotoxicity evaluated against WI38 tumor cell lines; Significant activity. The conditions noted are these: Homo sapiens.
The test system of experiment [19] is CCRF-CEM. Description: Cytotoxicity evaluated against CEM tumor cell lines; Significant activity. The conditions noted are these: Homo sapiens.
Experiment [20] has as its system WIL2. Description: Cytotoxicity evaluated against WIL2 tumor cell lines; Significant activity. The conditions noted are these: Homo sapiens.
Experiment [21] concerns K562. Description: Cytotoxicity evaluated against K562 tumor cell lines; Significant activity. The conditions noted are these: Homo sapiens.
The test system of experiment [22] is L1210. Description: Cytotoxicity evaluated against L1210 tumor cell lines; Significant activity. The conditions noted are these: Mus musculus.
The test system of experiment [23] is NIH3T3. Description: Cytotoxicity evaluated against NIH3T3 tumor cell lines; Significant activity. The conditions noted are these: Mus musculus.
For experiment [24], the system named is NCI-H292. Kind of experiment: Cytotoxicity evaluated against H292 tumor cell lines; Significant activity. The conditions noted are these: Homo sapiens.
For experiment [25], the system named is A549. Kind of experiment: Cytotoxicity evaluated against A549 tumor cell lines; significant activity. The conditions noted are these: Homo sapiens.
Experiment [26] concerns MOLT-4. Kind of experiment: Cytotoxicity was evaluated against Molt-4 tumor cell lines. The conditions noted are these: Homo sapiens.

Activity calls are given as the source filed them. The rule behind the calls is not given here.

With `COc1cc2c(c([N+](=O)[O-])c1OC)C(=O)/C(=C/c1cc(C)c([N+](=O)[O-])c(C)c1)C2`, the Cytotoxicity entry with B16 [1], in the experiment with NCI-H596 [2], in the experiment with CCRF-CEM [3], in the experiment with MOLT-4 [4], in the experiment on MCF7 [5] and in the experiment on NCI-H292 [6] was “inactive” in each case. Further, the Cytotoxicity entry in the experiment on A549 [7], in the experiment on HL-60 [8], with NIH3T3 [9], with WIL2 [10], in the experiment with WI-38 [11] and in the experiment on L1210 [12] was “inactive” in each case. Moreover, the Cytotoxicity entry in the experiment with K562 [13] was “inactive”. In the experiment with Jurkat, this molecule showed an IC50 above 50 µM.
Take `COc1ccc2c(c1)C/C(=C\c1cc(C)c(O)c(C)c1)C2=O`: the Cytotoxicity result in the experiment with B16 [1], with NCI-H596 [2], in the experiment on CCRF-CEM [3], in the experiment on MOLT-4 [4], in the experiment on MCF7 [5] and in the experiment on NCI-H292 [6] was “inactive” each time. Moreover, the Cytotoxicity result with A549 [7], with HL-60 [8], with NIH3T3 [9], in the experiment with WIL2 [10], in the experiment with WI-38 [11] and with L1210 [12] was “inactive” throughout. Besides, the Cytotoxicity result in the experiment on K562 [13] was “inactive”. Besides, the IC50 in the experiment with Jurkat is above 50 µM.
Turning to `COc1cc2c(c([N+](=O)[O-])c1OC)C(=O)/C(=C/c1cc(C)c(O)c(C)c1)C2`, the Cytotoxicity result in the experiment on B16 [1], with NCI-H596 [2], in the experiment on CCRF-CEM [3], with MOLT-4 [4], in the experiment on MCF7 [5] and in the experiment on NCI-H292 [6] was “inactive” in each case. Besides, the Cytotoxicity entry in the experiment with A549 [7], in the experiment on HL-60 [8], in the experiment on NIH3T3 [9], with WIL2 [10], with WI-38 [11] and with L1210 [12] was “inactive” in each case. Further, the Cytotoxicity entry in the experiment on K562 [13] was “inactive”. Besides, the IC50 in the experiment on Jurkat was above 50 µM.
With `COc1ccc(/C=C2\CCc3cc(OC)c(OC)cc3C2=O)cc1`, the Cytotoxicity result in the experiment with B16 [1], in the experiment on NCI-H596 [2], in the experiment on CCRF-CEM [3], with MOLT-4 [4], with MCF7 [5] and with NCI-H292 [6] was “inactive” each time. Further, the Cytotoxicity result with A549 [7], in the experiment on HL-60 [8], in the experiment with NIH3T3 [9], in the experiment with WIL2 [10], in the experiment with WI-38 [11] and in the experiment with L1210 [12] was “inactive” in each case. Also, the Cytotoxicity entry in the experiment with K562 [13] was “inactive”. For the same molecule, in the experiment on Jurkat, the IC50 was above 50 µM.
With `COc1ccc(/C=C2\CCc3cc(OC)c(OC)cc3C2=O)c(OC)c1`, the Cytotoxicity result in the experiment with B16 [1], in the experiment with NCI-H596 [2], with CCRF-CEM [3], in the experiment on MOLT-4 [4], in the experiment on MCF7 [5] and in the experiment with NCI-H292 [6] was “inactive” in each case. Moreover, the Cytotoxicity entry in the experiment on A549 [7], with HL-60 [8], with NIH3T3 [9], with WIL2 [10], with WI-38 [11] and in the experiment on L1210 [12] was “inactive” each time. Moreover, the Cytotoxicity result in the experiment with K562 [13] was “inactive”. In addition, in the experiment on Jurkat, the IC50 was above 50 µM.
As for `COc1cc2c(cc1OC)C(=O)/C(=C/c1c(OC)cccc1OC)CC2`, the Cytotoxicity result with B16 [1], in the experiment with NCI-H596 [2], with CCRF-CEM [3], in the experiment on MOLT-4 [4], in the experiment with MCF7 [5] and in the experiment on NCI-H292 [6] was “inactive” each time. Besides, the Cytotoxicity result with A549 [7], with HL-60 [8], in the experiment with NIH3T3 [9], in the experiment with WIL2 [10], in the experiment with WI-38 [11] and in the experiment on L1210 [12] was “inactive” each time. Besides, the Cytotoxicity result with K562 [13] is “inactive”. In addition, in the experiment with Jurkat, the IC50 was above 50 µM.
As for `COc1cc2c(cc1OC)C(=O)/C(=C/c1cccc(Cl)c1)C2`, the Cytotoxicity entry in the experiment with NCI-H596 [14], with HL-60 [15], in the experiment with MCF7 [16], in the experiment with B16 [17], in the experiment with WI-38 [18] and in the experiment on CCRF-CEM [19] was “Significant activity” each time. Moreover, the Cytotoxicity result with WIL2 [20], in the experiment on K562 [21], in the experiment on L1210 [22], with NIH3T3 [23], in the experiment with NCI-H292 [24] and in the experiment on A549 [25] was “Significant activity” each time. Moreover, the Cytotoxicity result in the experiment on MOLT-4 [26] is “Significant activity”. The molecule also returned an IC50 in the experiment with Jurkat of 8 µM.
As to `COc1cc2c(cc1OC)C(=O)/C(=C/c1cc(C)ccc1C)CC2`, the Cytotoxicity entry in the experiment with NCI-H596 [14], with HL-60 [15], with MCF7 [16], in the experiment with B16 [17], in the experiment on WI-38 [18] and in the experiment on CCRF-CEM [19] was “Significant activity” in each case. The Cytotoxicity result in the experiment on WIL2 [20], in the experiment with K562 [21], in the experiment with L1210 [22], in the experiment on NIH3T3 [23], in the experiment with NCI-H292 [24] and with A549 [25] was “Significant activity” each time. Further, the Cytotoxicity entry with MOLT-4 [26] is “Significant activity”. Further, inhibition in the experiment with Jurkat was half-maximal at 6 µM (IC50).
For the molecule `COc1ccc(OC)c(/C=C2\CCc3cc(OC)c(OC)cc3C2=O)c1`, the Cytotoxicity result with NCI-H596 [14], with HL-60 [15], with MCF7 [16], with B16 [17], in the experiment on WI-38 [18] and in the experiment on CCRF-CEM [19] was “Significant activity” each time. The Cytotoxicity entry in the experiment with WIL2 [20], in the experiment on K562 [21], with L1210 [22], in the experiment with NIH3T3 [23], with NCI-H292 [24] and with A549 [25] was “Significant activity” in each case. Further, the Cytotoxicity entry with MOLT-4 [26] was “Significant activity”. The molecule also returned an IC50 in the experiment on Jurkat of 11 µM.
